Reference: US12258344B2, “Azaaromatic amide derivatives for the treatment of cancer” (SHENZHEN FORWARD PHARMACEUTICALS CO., LTD., priority 2019, dated 2025)

Key:
[1] = molecular target: BaF3 (EGFR-L861Q) (Homo sapiens, UniProt P00533, L861Q, cells depend on it); assay: Test 8: BaF3 (EGFR-L861Q) cell proliferation test; type: cell-based; conditions: 72 hours, Cell Titer-Glo, read-out: Test 8 - IC50
Description: Test 8: BaF3 (EGFR-L8610) Cell Proliferation Test
BaF3 (EGFR-L861Q) was cultured in RPMI1640 medium containing 10% fetal bovine serum and 2 mM glutamine. The cells were grown at 37° C. in a humidified incubator with 5% CO2.
(§1) The number of viable cells in the culture was measured according to the protocol described in Promega's Cell Titer-Glo Luminescent cell Viability Assay (Promega catalog number #G7570). 90 μl of cells (3,000 cells/well) were cultured in growth medium in a Corning black transparent bottom 96-well plate, and cultured in a 5% CO2 humidified incubator at 37° C. overnight. The compound serially diluted in 100% DMSO was added to the cells using a pipette, and the cells were incubated for another 72 hours. 100 μl of the mixed Cell Titer-Glo reagent was added to the cells in the 96-well culture plate to lyse the cells and mix gently. Subsequently, the […] was detected on the Envision microplate detector to obtain the data of each compound. Finally, the data was input into a suitable software package (such as Prism) for curve fitting analysis.

[2] = molecular target: BaF3 (HER2-A775insYVMA) (Homo sapiens, UniProt P04626, DUP772-775, cells depend on it); assay: Test 9: BaF3 (HER2-A775insYVMA) cell proliferation test; type: cell-based; conditions: 72 hours, Cell Titer-Glo, read-out: Test 9 - IC50
Description: Test 9: BaF3 (HER2-A775insYVMA) Cell Proliferation Test
BaF3 (HER2-A775insYVMA) was cultured in RPMI1640 medium containing 10% fetal bovine serum and 2 mM glutamine. The cells were grown at 37° C. in a humidified incubator with 5% CO2.
as §1

[3] = molecular target: BaF3 (EGFR-D770insNPG) (Homo sapiens, UniProt P00533, INS772GNP, cells depend on it); assay: Test 6: BaF3 (EGFR-D770insNPG) cell proliferation test; type: cell-based; conditions: 72 hours, Cell Titer-Glo, read-out: Test 6 - IC50
Description: Test 6: BaF3 (EGFR-D770insNPG) Cell Proliferation Test
BaF3 (EGFR-D770insNPG) was cultured in RPMI1640 medium containing 10% fetal bovine serum and 2 mM glutamine. The cells were grown at 37° C. in a humidified incubator with 5% CO2.
as §1

[4] = molecular target: BaF3 (EGFR-S768I) (Homo sapiens, UniProt P00533, S768I, cells depend on it); assay: Test 7: BaF3 (EGFR-S768I) cell proliferation test; type: cell-based; conditions: 72 hours, Cell Titer-Glo, read-out: Test 7 - IC50
Description: Test 7: BaF3 (EGFR-S768I) Cell Proliferation Test
BaF3 (EGFR-S768I) was cultured in RPMI1640 medium containing 10% fetal bovine serum and 2 mM glutamine. The cells were grown at 37° C. in a humidified incubator with 5% CO2.
as §1

[5] = molecular target: BaF3 (EGFR-A763insFQEA) (Homo sapiens, UniProt P00533, INS763FQEA, cells depend on it); assay: Test 3: BaF3 (EGFR-A763insFQEA) cell proliferation test; type: cell-based; conditions: 72 hours, Cell Titer-Glo, read-out: Test 3 - IC50
Description: Test 3: BaF3 (EGFR-A763insFOEA) Cell Proliferation Test
BaF3 (EGFR-A763insFQEA) was cultured in RPMI1640 medium containing 10% fetal bovine serum and 2 mM glutamine. The cells were grown at 37° C. in a humidified incubator with 5% CO2.
as §1

[6] = molecular target: BaF3 (EGFR-V769insASV) (Homo sapiens, UniProt P00533, DUP767-769, cells depend on it); assay: Test 4: BaF3 (EGFR-V769insASV) cell proliferation test; type: cell-based; conditions: 72 hours, Cell Titer-Glo, read-out: Test 4 - IC50
Description: Test 4: BaF3 (EGFR-V769insASV) Cell Proliferation Test
BaF3 (EGFR-V769insASV) was cultured in RPMI1640 medium containing 10% fetal bovine serum and 2 mM glutamine. The cells were grown at 37° C. in a humidified incubator with 5% CO2.
as §1

[7] = molecular target: BaF3 (HER2-P780insGSP) (Homo sapiens, UniProt P04626, DUP778-780, cells depend on it); assay: Test 10: BaF3 (HER2-P780insGSP) cell proliferation test; type: cell-based; conditions: 72 hours, Cell Titer-Glo, read-out: Test 10 - IC50
Description: Test 10: BaF3 (HER2-P780insGSP) Cell Proliferation Test
BaF3 (HER2-P780insGSP) was cultured in RPMI1640 medium containing 10% fetal bovine serum and 2 mM glutamine. The cells were grown at 37° C. in a humidified incubator with 5% CO2.
as §1

[8] = molecular target: T1, HER4 kinase (Homo sapiens, UniProt Q15303); assay: Test 12: HER4 kinase screening test; type: binding; conditions: for inhibition at 1 µM: compound concentration 1 μM, read-out: 1 μM Inhibition rate (%); for inhibition at 10 µM: compound concentration 10 μM, read-out: 10 μM Inhibition rate (%)
T1 construct: made in house
Description: Test 12: HER4 Kinase Screening Test
Most kinase activity tests were carried out by T7 phage expressing kinase expressed in E. coli system. After E. coli grew to the logarithmic phase, E. coli was infected with T7 bacteriophage (moi=0.4) and cultured with shaking at 32° C. until lysis (90-150 minutes). The lysate was filtered with a centrifuge (6,000 g) and filtration membrane (0.2 μm) to remove cell debris. Other individual kinases to be tested were expressed by HEK-293 cells and labeled with DNA for qPCR detection.
Next, the ligand magnetic beads were blocked with excess biotin and washed with blocking buffer (SeaBlock (Pierce), 1% BSA, 0.05% Tween-20, 1 mm DTT) to remove unbound ligand and reduce non-specific binding of phages. […] 100% DMSO was used to prepare the test compound at a concentration of 40×, which was directly diluted into the reaction system. All reactions were carried out on a polypropylene 384-well plate, and the final volume of the reaction system was 0.02 ml.

[9] = molecular target: BaF3 (EGFR-D770insSVD) (Homo sapiens, UniProt P00533, DUP768-770, cells depend on it); assay: Test 2: BaF3 (EGFR-D770insSVD) cell proliferation test; type: cell-based; conditions: 72 hours, Cell Titer-Glo, read-out: Test 2 - IC50
Description: Test 2: BaF3 (EGFR-D770insSVD) Cell Proliferation Test
BaF3 (EGFR-D770insSVD) was cultured in RPMI1640 medium containing 10% fetal bovine serum and 2 mM glutamine. The cells were grown at 37° C. in a humidified incubator with 5% CO2.
as §1

BaF3 (EGFR-V769insASV), sequence (P00533 with tags, fused parts or gaps DUP767-769): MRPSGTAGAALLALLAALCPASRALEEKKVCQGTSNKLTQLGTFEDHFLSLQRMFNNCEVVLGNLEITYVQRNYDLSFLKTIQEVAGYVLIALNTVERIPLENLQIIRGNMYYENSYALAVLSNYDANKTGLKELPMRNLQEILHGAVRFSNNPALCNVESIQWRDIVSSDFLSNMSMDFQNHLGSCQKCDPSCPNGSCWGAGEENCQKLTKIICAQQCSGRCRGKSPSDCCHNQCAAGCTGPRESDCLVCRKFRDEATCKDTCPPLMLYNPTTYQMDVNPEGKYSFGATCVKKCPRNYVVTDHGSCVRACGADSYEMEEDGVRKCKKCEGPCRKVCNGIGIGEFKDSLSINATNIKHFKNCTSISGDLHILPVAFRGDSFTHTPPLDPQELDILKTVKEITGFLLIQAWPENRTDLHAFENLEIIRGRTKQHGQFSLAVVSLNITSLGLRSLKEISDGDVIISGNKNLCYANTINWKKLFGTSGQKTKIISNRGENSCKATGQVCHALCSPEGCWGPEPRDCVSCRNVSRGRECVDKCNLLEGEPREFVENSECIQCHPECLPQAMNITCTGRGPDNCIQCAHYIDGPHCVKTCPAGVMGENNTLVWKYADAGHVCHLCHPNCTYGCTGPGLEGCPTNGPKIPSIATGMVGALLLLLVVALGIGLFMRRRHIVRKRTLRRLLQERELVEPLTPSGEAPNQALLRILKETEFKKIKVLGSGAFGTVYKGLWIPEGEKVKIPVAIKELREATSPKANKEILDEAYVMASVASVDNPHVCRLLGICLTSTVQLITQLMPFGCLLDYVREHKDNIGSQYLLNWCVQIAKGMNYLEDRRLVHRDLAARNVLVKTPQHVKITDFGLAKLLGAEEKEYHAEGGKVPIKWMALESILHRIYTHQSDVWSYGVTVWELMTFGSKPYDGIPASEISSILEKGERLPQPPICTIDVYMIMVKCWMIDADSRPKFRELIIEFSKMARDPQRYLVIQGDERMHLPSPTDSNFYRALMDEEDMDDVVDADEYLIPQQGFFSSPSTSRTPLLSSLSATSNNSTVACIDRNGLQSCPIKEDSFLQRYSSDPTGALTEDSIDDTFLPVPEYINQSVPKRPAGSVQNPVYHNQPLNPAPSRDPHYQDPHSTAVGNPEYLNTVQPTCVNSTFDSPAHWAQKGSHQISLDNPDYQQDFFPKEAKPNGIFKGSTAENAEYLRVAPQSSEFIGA
BaF3 (HER2-A775insYVMA), sequence (P04626 with tags, fused parts or gaps DUP772-775): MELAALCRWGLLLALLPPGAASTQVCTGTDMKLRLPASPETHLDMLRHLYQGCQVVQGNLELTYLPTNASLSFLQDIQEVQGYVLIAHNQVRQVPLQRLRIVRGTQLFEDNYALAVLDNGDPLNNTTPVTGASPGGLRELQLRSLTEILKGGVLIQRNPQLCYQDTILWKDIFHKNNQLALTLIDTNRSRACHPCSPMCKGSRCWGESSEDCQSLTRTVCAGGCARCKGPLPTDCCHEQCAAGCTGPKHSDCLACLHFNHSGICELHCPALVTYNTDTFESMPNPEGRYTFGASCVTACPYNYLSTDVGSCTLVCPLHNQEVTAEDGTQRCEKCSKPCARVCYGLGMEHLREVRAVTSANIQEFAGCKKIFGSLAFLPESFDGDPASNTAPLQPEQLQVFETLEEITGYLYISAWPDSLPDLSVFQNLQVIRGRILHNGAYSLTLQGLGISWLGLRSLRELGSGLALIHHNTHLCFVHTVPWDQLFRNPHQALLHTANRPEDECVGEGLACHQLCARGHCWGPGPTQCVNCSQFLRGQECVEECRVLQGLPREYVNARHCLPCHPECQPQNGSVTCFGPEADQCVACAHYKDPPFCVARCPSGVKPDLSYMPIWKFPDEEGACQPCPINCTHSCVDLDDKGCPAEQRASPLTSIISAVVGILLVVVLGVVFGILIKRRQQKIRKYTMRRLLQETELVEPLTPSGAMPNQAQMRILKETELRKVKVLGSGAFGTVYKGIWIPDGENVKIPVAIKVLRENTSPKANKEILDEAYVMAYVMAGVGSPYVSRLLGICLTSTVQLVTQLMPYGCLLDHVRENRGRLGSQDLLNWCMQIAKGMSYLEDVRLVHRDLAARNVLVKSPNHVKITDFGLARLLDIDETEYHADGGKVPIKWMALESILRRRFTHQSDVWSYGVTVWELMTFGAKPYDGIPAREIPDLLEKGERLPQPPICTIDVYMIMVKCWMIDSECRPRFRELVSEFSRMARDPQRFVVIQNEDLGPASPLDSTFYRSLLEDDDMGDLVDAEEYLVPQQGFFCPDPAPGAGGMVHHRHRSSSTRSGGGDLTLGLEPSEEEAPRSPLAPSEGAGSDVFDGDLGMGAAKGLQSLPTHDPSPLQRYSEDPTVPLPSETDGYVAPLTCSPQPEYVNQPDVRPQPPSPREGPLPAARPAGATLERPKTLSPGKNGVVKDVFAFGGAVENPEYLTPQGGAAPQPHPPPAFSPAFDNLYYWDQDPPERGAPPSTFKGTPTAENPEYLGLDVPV
BaF3 (HER2-P780insGSP), sequence (P04626 with tags, fused parts or gaps DUP778-780): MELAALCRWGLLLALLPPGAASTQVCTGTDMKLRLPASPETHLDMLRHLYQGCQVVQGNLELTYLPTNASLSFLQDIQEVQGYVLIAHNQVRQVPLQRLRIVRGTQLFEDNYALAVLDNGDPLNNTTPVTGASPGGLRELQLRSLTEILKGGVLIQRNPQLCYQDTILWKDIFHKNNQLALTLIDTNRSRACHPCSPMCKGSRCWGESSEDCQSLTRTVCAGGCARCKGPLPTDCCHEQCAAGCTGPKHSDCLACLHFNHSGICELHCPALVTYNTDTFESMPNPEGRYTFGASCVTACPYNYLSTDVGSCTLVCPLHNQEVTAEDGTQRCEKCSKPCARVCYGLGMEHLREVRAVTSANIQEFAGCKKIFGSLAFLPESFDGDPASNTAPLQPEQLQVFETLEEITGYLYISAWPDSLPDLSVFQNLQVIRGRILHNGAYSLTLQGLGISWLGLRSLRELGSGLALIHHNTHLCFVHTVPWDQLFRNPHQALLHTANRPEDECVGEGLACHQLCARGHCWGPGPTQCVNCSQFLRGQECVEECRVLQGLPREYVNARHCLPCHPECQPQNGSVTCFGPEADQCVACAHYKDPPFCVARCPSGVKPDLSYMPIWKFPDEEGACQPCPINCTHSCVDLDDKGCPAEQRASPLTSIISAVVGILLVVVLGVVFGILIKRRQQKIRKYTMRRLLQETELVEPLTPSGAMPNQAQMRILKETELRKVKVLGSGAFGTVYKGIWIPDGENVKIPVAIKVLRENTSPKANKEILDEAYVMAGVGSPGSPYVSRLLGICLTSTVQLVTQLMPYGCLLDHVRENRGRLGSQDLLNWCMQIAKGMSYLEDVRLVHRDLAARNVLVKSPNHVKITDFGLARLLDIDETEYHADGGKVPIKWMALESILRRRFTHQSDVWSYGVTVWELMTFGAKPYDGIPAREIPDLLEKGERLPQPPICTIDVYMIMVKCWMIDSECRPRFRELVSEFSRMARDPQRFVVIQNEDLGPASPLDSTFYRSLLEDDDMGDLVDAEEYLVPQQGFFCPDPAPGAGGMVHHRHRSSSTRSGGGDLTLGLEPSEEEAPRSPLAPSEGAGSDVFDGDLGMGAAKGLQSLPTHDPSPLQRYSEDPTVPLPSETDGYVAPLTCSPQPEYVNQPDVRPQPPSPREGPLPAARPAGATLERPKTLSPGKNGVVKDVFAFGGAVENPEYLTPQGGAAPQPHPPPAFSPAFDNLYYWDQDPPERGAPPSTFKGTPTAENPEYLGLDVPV
BaF3 (EGFR-S768I), sequence (P00533 whole entry S768I): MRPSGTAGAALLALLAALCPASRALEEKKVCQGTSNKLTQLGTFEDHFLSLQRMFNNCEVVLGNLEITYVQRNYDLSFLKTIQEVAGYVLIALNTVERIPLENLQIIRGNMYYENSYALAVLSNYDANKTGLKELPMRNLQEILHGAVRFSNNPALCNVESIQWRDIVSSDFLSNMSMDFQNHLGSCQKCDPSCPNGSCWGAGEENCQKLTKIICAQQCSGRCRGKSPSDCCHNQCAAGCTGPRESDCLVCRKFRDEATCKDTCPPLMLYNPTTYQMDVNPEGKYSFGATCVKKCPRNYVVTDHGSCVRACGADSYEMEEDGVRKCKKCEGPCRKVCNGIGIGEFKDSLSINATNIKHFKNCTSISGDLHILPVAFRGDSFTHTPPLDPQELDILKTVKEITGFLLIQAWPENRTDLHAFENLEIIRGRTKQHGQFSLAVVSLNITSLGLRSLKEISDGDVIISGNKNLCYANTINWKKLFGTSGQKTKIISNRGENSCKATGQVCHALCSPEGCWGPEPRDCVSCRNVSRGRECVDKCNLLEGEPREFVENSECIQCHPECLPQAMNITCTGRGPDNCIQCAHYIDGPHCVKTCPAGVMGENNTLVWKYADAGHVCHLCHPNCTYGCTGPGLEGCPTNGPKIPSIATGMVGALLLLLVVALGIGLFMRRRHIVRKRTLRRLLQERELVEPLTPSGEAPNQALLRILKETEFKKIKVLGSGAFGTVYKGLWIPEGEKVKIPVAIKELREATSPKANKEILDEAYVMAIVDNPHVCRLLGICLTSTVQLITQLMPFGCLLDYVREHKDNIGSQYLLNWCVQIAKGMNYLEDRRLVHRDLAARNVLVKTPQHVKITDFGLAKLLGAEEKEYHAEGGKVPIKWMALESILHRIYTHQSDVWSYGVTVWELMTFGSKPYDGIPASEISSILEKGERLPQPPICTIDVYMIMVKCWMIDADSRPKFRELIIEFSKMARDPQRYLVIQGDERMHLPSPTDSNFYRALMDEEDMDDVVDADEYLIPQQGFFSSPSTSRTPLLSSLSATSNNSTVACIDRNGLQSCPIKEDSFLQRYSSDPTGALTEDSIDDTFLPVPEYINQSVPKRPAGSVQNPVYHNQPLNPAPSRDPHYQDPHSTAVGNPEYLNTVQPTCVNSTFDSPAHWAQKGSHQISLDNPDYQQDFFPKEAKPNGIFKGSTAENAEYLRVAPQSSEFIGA

Row | GI50 [1] [nM] | GI50 [2] [nM] | GI50 [3] [nM] | GI50 [4] [nM] | GI50 [5] [nM] | GI50 [6] [nM] | GI50 [7] [nM] | inhibition at 1 µM [8] [%] | inhibition at 10 µM [8] [%] | GI50 [9] [nM] | Structure (SMILES)
1 | 22.5 | 14.2 | 10.2 | 38.1 | 9.45 | 47.9 | 8.76 | > 95 | > 95 | 22.3 | C=CC(=O)Nc1cc(Nc2ncnc(-c3cn(C)c4ccc(F)cc34)n2)c(OC)cc1N(C)CCN(C)C [Example 11]
2 | 3.87 | 10.8 | 8.87 | 7.41 | 14 | 45 | 6.58 | > 98 | > 98 | 24.4 | C=CC(=O)Nc1cc(Nc2ncnc(-c3cn(C)c4ccc(F)cc34)n2)c(OCC(F)(F)F)cc1N(C)CCN(C)C [Example 15, N-(2-((2-(dimethylamino)ethyl)(methyl)amino)-5-((4-(5-fluoro-1-methyl-1H-indol-3-yl)-1,3,5-triazin-2-yl)amino)-4-(2,2,2-trifluoroethoxy)phenyl)acrylamide]
3 | 4.58 | 12.4 | 10 | 8.91 | 7.6 | 25.9 | 6.92 | > 98 | > 98 | 16.4 | C=CC(=O)Nc1cc(Nc2ncnc(-c3cn(C)c4ccc(F)cc34)n2)c(OC(F)F)cc1N(C)CCN(C)C [Example 14, N-(4-(difluoromethoxy)-2-((2-(dimethylamino)ethyl)(methyl)amino)-5-((4-(5-fluoro-1-methyl-1H-indol-3-yl)-1,3,5-triazin-2-yl)amino)phenyl)acrylamide]
